From patent US20240002344A1, “COMPOUNDS, COMPOSITIONS AND METHODS FOR HISTONE LYSINE DEMETHYLASE INHIBITION” (FibroGen, Inc., priority 2020, published 2024) come the findings set out here.

As a reminder, the IC50 is the concentration needed to halve the response being measured.

Structures are written as SMILES.

The target in one assay is T1, recombinant human KDM5B (Homo sapiens, UniProt Q9UGL1).
T1 sequence (Q9UGL1 374-755 limits assumed): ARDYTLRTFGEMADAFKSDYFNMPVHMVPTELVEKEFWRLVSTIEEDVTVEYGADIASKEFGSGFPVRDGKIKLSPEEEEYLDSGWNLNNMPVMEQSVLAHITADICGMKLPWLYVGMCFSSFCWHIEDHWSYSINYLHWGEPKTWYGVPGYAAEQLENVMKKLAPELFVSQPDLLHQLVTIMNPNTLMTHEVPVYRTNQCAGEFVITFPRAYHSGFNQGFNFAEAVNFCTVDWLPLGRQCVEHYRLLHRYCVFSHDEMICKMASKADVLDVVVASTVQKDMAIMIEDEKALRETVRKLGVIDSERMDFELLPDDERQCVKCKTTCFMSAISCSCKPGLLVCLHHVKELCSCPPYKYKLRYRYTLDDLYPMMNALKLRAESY
Put plainly: 14CO2 capture enzymatic assay (decarboxylation of [1-14C] αKG), KDM5B. Format: biochemical. Particulars: 10 μM [1-14C] αKG, 90 μM non-labeled αKG, 50 μM peptide substrate, 37° C., 1 hour, final 1% DMSO. In outline: (§1)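 Truncated recombinant human KDM5B (H3K4me3 peptide) or KDM4A (H3K9me3 peptide), 50 μM peptide, with 10 μM [1-14C]αKG plus 90 μM unlabeled αKG, 10 μM Fe(SO4), 2 mM ascorbate in pH 7.4 HEPES, 1 h at 37 °C, 1% DMSO. Released 14CO2 trapped on Ba(OH)2 filter; IC50 by non-linear fit.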

The target of the next assay is T2, recombinant human KDM4A (Homo sapiens, UniProt O75164).
T2 construct: made in house
T2 sequence (O75164 1-359 limits assumed): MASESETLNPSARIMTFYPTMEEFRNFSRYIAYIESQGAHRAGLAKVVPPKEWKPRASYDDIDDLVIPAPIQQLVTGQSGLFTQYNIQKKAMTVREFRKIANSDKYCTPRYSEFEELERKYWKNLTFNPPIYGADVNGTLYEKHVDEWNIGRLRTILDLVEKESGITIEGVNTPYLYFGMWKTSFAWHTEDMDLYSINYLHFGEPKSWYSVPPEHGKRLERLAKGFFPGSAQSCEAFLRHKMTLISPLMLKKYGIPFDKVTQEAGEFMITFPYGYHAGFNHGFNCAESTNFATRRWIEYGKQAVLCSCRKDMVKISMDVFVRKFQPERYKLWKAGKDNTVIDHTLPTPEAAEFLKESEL
Put plainly: 14CO2 capture enzymatic assay (decarboxylation of [1-14C] αKG), KDM4A. It is filed as biochemical. Particulars: 10 μM [1-14C] αKG, 90 μM non-labeled αKG, 50 μM peptide substrate, 37° C., 1 hour, final 1% DMSO. In outline: as §1

On to `Cc1noc(C)c1Cc1cc(C#N)c(O)c(C(=O)CCC(=O)O)n1` [Example 154, 4-[4-Cyano-6-(3,5-dimethyl-isoxazol-4-ylmethyl)-3-hydroxy-pyridin-2-yl]-4-oxo-butyric acid], for which the IC50 on recombinant human KDM5B was 260 nM; on recombinant human KDM4A, 1400 nM.

`N#Cc1cc(-c2cccc3cccnc23)nc(C(=O)CCC(=O)O)c1O` [Example 116, 4-(4-Cyano-3-hydroxy-6-quinolin-8-yl-pyridin-2-yl)-4-oxo-butyric acid]: the 50% inhibitory concentration (IC50) on recombinant human KDM5B was 100 nM; on recombinant human KDM4A, above 40000 nM.

On to `N#Cc1cc(Cc2ccc(C(F)(F)F)cc2)nc(C(=O)CCC(=O)O)c1O` [Example 39, 4-[4-Cyano-3-hydroxy-6-(4-trifluoromethyl-benzyl)-pyridin-2-yl]-4-oxo-butyric acid], for which the IC50 was 130 nM on recombinant human KDM5B and above 40000 nM at recombinant human KDM4A.

Take `N#Cc1cc(-c2cccc(Cl)c2)nc(C(=O)CCC(=O)O)c1O` [Example 23, 4-[6-(3-Chloro-phenyl)-4-cyano-3-hydroxy-pyridin-2-yl]-4-oxo-butyric acid]: the IC50 on recombinant human KDM5B is 150 nM; at recombinant human KDM4A, at least 40000 nM.

For the molecule `N#Cc1cc(Oc2ccc(Cl)cc2)cc(C(=O)CCC(=O)O)c1O` [Example 137, 4-[5-(4-Chloro-phenoxy)-3-cyano-2-hydroxy-phenyl]-4-oxo-butyric acid], the half-maximal inhibitory concentration (IC50) is 820 nM at recombinant human KDM5B and above 40000 nM at recombinant human KDM4A.

In the case of `Cc1ccccc1Cc1cc(C#N)c(O)c(C(=O)CCC(=O)O)n1` [Example 36, 4-[4-Cyano-3-hydroxy-6-(2-methyl-benzyl)-pyridin-2-yl]-4-oxo-butyric acid], the IC50 on recombinant human KDM5B came to 70 nM; at recombinant human KDM4A, 3700 nM.

Consider `COc1ccccc1-c1cc(C#N)c(O)c(C(=O)CCC(=O)O)n1` [Example 14, 4-[4-Cyano-3-hydroxy-6-(2-methoxy-phenyl)-pyridin-2-yl]-4-oxo-butyric acid], for which the IC50 was 470 nM on recombinant human KDM5B and above 40000 nM on recombinant human KDM4A.

With `Cc1ccc(Cc2cc(C#N)c(O)c(C(=O)CCC(=O)O)n2)cc1` [Example 38, 4-[4-Cyano-3-hydroxy-6-(4-methyl-benzyl)-pyridin-2-yl]-4-oxo-butyric acid], the IC50 was 120 nM at recombinant human KDM5B and above 40000 nM at recombinant human KDM4A.

As for `N#Cc1cc(Cc2cccc(C(F)(F)F)c2)nc(C(=O)CCC(=O)O)c1O` [Example 29, 4-[4-Cyano-3-hydroxy-6-(3-trifluoromethyl-benzyl)-pyridin-2-yl]-4-oxo-butyric acid], the results for the IC50 at recombinant human KDM5B and on recombinant human KDM4A were 460 nM and above 40000 nM, respectively.

`N#Cc1cc(Cc2c(F)cccc2C(F)(F)F)nc(C(=O)CCC(=O)O)c1O` [Example 60, 4-[6-(2-Fluoro-6-trifluoromethyl-benzyl)-4-cyano-3-hydroxy-pyridin-2-yl]-4-oxo-butyric acid]: the IC50 on recombinant human KDM5B is 330 nM; at recombinant human KDM4A, above 40000 nM.

`Cc1cc(Cl)cc(C)c1Cc1cc(C#N)c(O)c(C(=O)CCC(=O)O)n1` [Example 152, 4-[4-Cyano-6-(4-chloro-2,6-dimethyl-benzyl)-3-hydroxy-pyridin-2-yl]-4-oxo-butyric acid]: the values for the IC50 at recombinant human KDM5B and at recombinant human KDM4A were 450 nM and 9700 nM, respectively.

For `COc1ccc(Oc2cc(C#N)c(O)c(C(=O)CCC(=O)O)c2)cc1` [Example 141, 4-[3-Cyano-2-hydroxy-5-(4-methoxy-phenoxy)-phenyl]-4-oxo-butyric acid], the 50% inhibitory concentration (IC50) on recombinant human KDM5B was 250 nM; on recombinant human KDM4A, above 40000 nM.

As to `N#Cc1cc(Cc2c(Cl)ccc(F)c2Cl)cc(C(=O)CCC(=O)O)c1O` [Example 134, 4-[3-Cyano-5-(2,6-dichloro-3-fluoro-benzyl)-2-hydroxy-phenyl]-4-oxo-butyric acid], the IC50 at recombinant human KDM5B was 120 nM; at recombinant human KDM4A it was above 40000 nM.

Turning to `N#Cc1cc(Cc2c(F)ccc(Cl)c2F)nc(C(=O)CCC(=O)O)c1O` [Example 56, 4-[6-(3-Chloro-2,6-difluoro-benzyl)-4-cyano-3-hydroxy-pyridin-2-yl]-4-oxo-butyric acid], the IC50 on recombinant human KDM5B was 290 nM; on recombinant human KDM4A, above 40000 nM.

`N#Cc1cc(-c2cccnc2)nc(C(=O)CCC(=O)O)c1O` [Example 13, 4-(4-Cyano-5-hydroxy-[2,3′]bipyridinyl-6-yl)-4-oxo-butyric acid]: the IC50 on recombinant human KDM5B is 140 nM; on recombinant human KDM4A, 22000 nM.

In the case of `CSc1cc(C#N)c(O)c(C(=O)CCC(=O)O)n1` [Example 5, 4-(4-Cyano-3-hydroxy-6-methylsulfanyl-pyridin-2-yl)-4-oxo-butyric acid], the figures for the IC50 at recombinant human KDM5B and at recombinant human KDM4A were 240 nM and 71000 nM, respectively.

As to `N#Cc1cc(Cc2cccc(-c3ccccc3)c2)nc(C(=O)CCC(=O)O)c1O` [Example 51, 4-(6-Biphenyl-3-ylmethyl-4-cyano-3-hydroxy-pyridin-2-yl)-4-oxo-butyric acid], the IC50 is 200 nM at recombinant human KDM5B and above 40000 nM at recombinant human KDM4A.

`N#Cc1cc(Cc2ccc(Cl)cc2Cl)nc(C(=O)CCC(=O)O)c1O` [Example 64, 4-[4-Cyano-6-(2,4-dichloro-benzyl)-3-hydroxy-pyridin-2-yl]-4-oxo-butyric acid]: the IC50 at recombinant human KDM5B was 260 nM; at recombinant human KDM4A, above 40000 nM.

`Cc1c(-c2cc(C#N)c(O)c(C(=O)CCC(=O)O)n2)cccc1C(F)(F)F` [Example 95, 4-[4-Cyano-3-hydroxy-6-(2-methyl-3-trifluoromethyl-phenyl)-pyridin-2-yl]-4-oxo-butyric acid]: the IC50 at recombinant human KDM5B is 350 nM; at recombinant human KDM4A, above 40000 nM.

Take `N#Cc1cc(Oc2ccccc2Cl)cc(C(=O)CCC(=O)O)c1O` [Example 136, 4-[5-(2-Chloro-phenoxy)-3-cyano-2-hydroxy-phenyl]-4-oxo-butyric acid]: the figures for the IC50 at recombinant human KDM5B and on recombinant human KDM4A were 370 nM and above 40000 nM, respectively.

`N#Cc1cc(Cc2ccccc2-c2ccccc2)nc(C(=O)CCC(=O)O)c1O` [Example 52, 4-(6-Biphenyl-2-ylmethyl-4-cyano-3-hydroxy-pyridin-2-yl)-4-oxo-butyric acid]: the IC50 on recombinant human KDM5B was 300 nM; on recombinant human KDM4A, above 40000 nM.

With `Cc1cccc(F)c1Cc1cc(C#N)c(O)c(C(=O)CCC(=O)O)n1` [Example 148, 4-[4-Cyano-6-(2-fluoro-6-methyl-benzyl)-3-hydroxy-pyridin-2-yl]-4-oxo-butyric acid], the IC50 at recombinant human KDM5B worked out at 300 nM; at recombinant human KDM4A, 4300 nM.

For `N#Cc1cc(-c2ccc(C(F)(F)F)cc2Cl)nc(C(=O)CCC(=O)O)c1O` [Example 115, 4-[6-(2-Chloro-4-trifluoromethyl-phenyl)-4-cyano-3-hydroxy-pyridin-2-yl]-4-oxo-butyric acid], the IC50 was 230 nM at recombinant human KDM5B and above 40000 nM at recombinant human KDM4A.

For the molecule `N#Cc1cc(-c2ccc(-c3ccccc3)cc2)nc(C(=O)CCC(=O)O)c1O` [Example 75, 4-(6-Biphenyl-4-yl-4-cyano-3-hydroxy-pyridin-2-yl)-4-oxo-butyric acid], the half-maximal inhibitory concentration (IC50) on recombinant human KDM5B was 90 nM; on recombinant human KDM4A, 20000 nM.

Take `N#Cc1cc(-c2ccc(Cl)cc2)nc(C(=O)CCC(=O)O)c1O` [Example 22, 4-[6-(4-Chloro-phenyl)-4-cyano-3-hydroxy-pyridin-2-yl]-4-oxo-butyric acid]: the IC50 at recombinant human KDM5B was 180 nM; at recombinant human KDM4A it was at least 40000 nM.

Consider `N#Cc1cc(-c2cccc(C(F)(F)F)c2Cl)nc(C(=O)CCC(=O)O)c1O` [Example 103, 4-[6-(2-Chloro-3-trifluoromethyl-phenyl)-4-cyano-3-hydroxy-pyridin-2-yl]-4-oxo-butyric acid], for which the IC50 on recombinant human KDM5B was 380 nM; on recombinant human KDM4A, above 40000 nM.
